Among the test systems are A498; CAKI-1; CCRF-CEM; DU-145; HCC 2998; HCT-116; HCT-15; IGROV-1; K562; M14; MDA-MB-231; MDA-MB-435; MDA-N; NCI-H226; OVCAR-5; SK-OV-3; SNB-75; T47D; TK-10.
What all share (assay): inhibition of tumour cell growth, NCI panel, 48 h

Molecules are shown by their SMILES.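 Cells were grown in 96-well plates and exposed to each compound for 48 hours at five concentrations; endpoints were interpolated linearly between bracketing concentrations, or set to the highest concentration if not reached. GI50 = concentration required for 50% inhibition of growth.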 The source made the active and inactive calls. No stated cut-off is given here; in the data, active = GI50 up to about 1.1 µM and inactive = higher.

As for `O=C(Nc1ccccc1C(=O)O)/C(=C/c1ccccc1)NC(=O)c1ccccc1`, the GI50 in the test on A498, in the test on CAKI-1, with CCRF-CEM, in the test with DU-145, in the test with HCC 2998 and in the test with HCT-116 was > 100 µM (inactive) in each case. Besides, the GI50 with HCT-15 is above 100 µM; in the test with IGROV-1, > 100 µM (inactive); in the test with K562, > 100 µM (inactive); in the test with M14, > 100 µM (inactive); in the test on MDA-MB-231, > 100 µM (inactive); in the test with MDA-MB-435, > 100 µM (inactive). The GI50 in the test with MDA-N, with NCI-H226, in the test on OVCAR-5, in the test on SK-OV-3, in the test on SNB-75 and in the test with T47D was > 100 µM (inactive) throughout.
For `O=C(C1=CCC2(CC1)OCCO2)N(Cc1ccccc1)c1ccccc1I`, the GI50 in the test with A498 was 22.5 µM (inactive); in the test with CAKI-1, 24.5 µM (inactive); in the test with DU-145 it was 32.8 µM (inactive); in the test with HCC 2998 it was 16.8 µM (inactive); in the test on HCT-116, 14.8 µM (inactive); in the test with HCT-15, 23 µM. Moreover, the GI50 was 43.2 µM (inactive) in the test with K562; 16.9 µM (inactive) with M14; 20 µM (inactive) with MDA-MB-231; 19.7 µM (inactive) in the test with MDA-MB-435; 29 µM (inactive) with MDA-N; 19.9 µM (inactive) in the test with NCI-H226. Also, the GI50 in the test with OVCAR-5 is 18.1 µM (inactive); in the test with SK-OV-3, 32.1 µM (inactive); in the test with SNB-75, 14.1 µM (inactive); in the test with T47D, 18.4 µM (inactive); with TK-10, 21.5 µM (inactive).
With `Cc1cccc2sc(NC(=O)NS(=O)(=O)n3cnc4ccccc43)nc12`, the GI50 is 25.5 µM (inactive) with A498; 34.7 µM (inactive) in the test on CAKI-1; 76.6 µM (inactive) with CCRF-CEM; 32.8 µM (inactive) with DU-145; 15.6 µM (inactive) in the test with HCC 2998; 28.1 µM (inactive) in the test with HCT-116. Besides, the GI50 in the test on HCT-15 is 25.9 µM; in the test on IGROV-1 it was 16.5 µM (inactive); with M14, 31.3 µM (inactive); in the test on MDA-MB-231 it was 27 µM (inactive); in the test with MDA-MB-435 it was 27.9 µM (inactive); in the test with MDA-N, 31.3 µM (inactive). In addition, the GI50 is 59 µM (inactive) in the test with NCI-H226; 25.9 µM (inactive) in the test on OVCAR-5; 38.3 µM (inactive) with SK-OV-3; 18.8 µM (inactive) in the test on SNB-75; 15.1 µM (inactive) in the test on T47D; 35.6 µM (inactive) in the test on TK-10.
`Nc1nc(N)c2ncn(-c3ccc(Cl)cc3)c2n1`: the GI50 was 21.8 µM (inactive) with A498; 20.4 µM (inactive) in the test with CAKI-1; 20.9 µM (inactive) in the test with CCRF-CEM; 25 µM (inactive) with DU-145; 30.2 µM (inactive) in the test on HCC 2998; 37.9 µM (inactive) in the test with HCT-116. For the same compound, the GI50 with HCT-15 was 24.8 µM; in the test on IGROV-1, 6.97 µM (inactive); in the test with M14, 39 µM (inactive); in the test on MDA-MB-231 it was 63.2 µM (inactive); in the test with MDA-MB-435 it was 87.3 µM (inactive); with MDA-N it was 89.1 µM (inactive). Further, the GI50 in the test on NCI-H226 was 39.1 µM (inactive); in the test with OVCAR-5, 16.7 µM (inactive); in the test on SK-OV-3 it was 20.5 µM (inactive); in the test on SNB-75, 10.1 µM (inactive); in the test with T47D, 25.5 µM (inactive); with TK-10 it was 20 µM (inactive).
As for `CCC12CN(C(=O)OC)C3C(Br)C1CCC(=O)C32` (configuration not stated), the GI50 in the test on A498 is > 100 µM (inactive); with CAKI-1, > 100 µM (inactive); in the test on CCRF-CEM, > 100 µM (inactive); in the test on DU-145, > 100 µM (inactive); in the test on HCC 2998, > 100 µM (inactive); in the test with HCT-15, above 100 µM. The GI50 with IGROV-1, in the test on K562, in the test on M14, in the test on MDA-MB-231, in the test on MDA-MB-435 and with MDA-N was > 100 µM (inactive) each time. The GI50 in the test on NCI-H226, in the test on OVCAR-5, with SK-OV-3, with SNB-75, with T47D and with TK-10 was > 100 µM (inactive) each time.
With `COCC([C@@H](O)C(O)C(=O)NCC[C@@H](C)c1nc(/C=C/CC2OC3(C[C@H](O)C2C)OC(C(C[C@H](O)C(C)[C@H](O)C(C)/C=C(C)/C(C)=C/C=C/C(C)=C/C#N)OC)[C@@H](OP(=O)(O)O)C3(C)C)co1)N(C)C` (some centres not stated), the GI50 in the test with A498 is 0.00188 µM (active); in the test with CAKI-1, 0.000174 µM (active); in the test on DU-145, 0.000182 µM (active); with HCC 2998, 0.000185 µM (active); with HCT-116, 0.000177 µM (active); in the test on HCT-15 it was 0.000202 µM. For the same compound, the GI50 in the test on IGROV-1 was 0.000161 µM (active); in the test on K562, 0.000296 µM (active); in the test with M14 it was 0.000173 µM (active); in the test with MDA-MB-231 it was 0.000242 µM (active); with MDA-MB-435 it was 0.000175 µM (active); with MDA-N it was 0.000191 µM (active). Moreover, the GI50 was 0.00015 µM (active) in the test with NCI-H226; 0.000188 µM (active) with OVCAR-5; 0.000474 µM (active) in the test on SK-OV-3; 0.000182 µM (active) in the test on SNB-75; 0.000703 µM (active) with T47D; 0.000115 µM (active) in the test on TK-10.
As for `COC(=O)C12C3C4C1C1C2C3C41C(=O)NC(C)(C)CC(=O)O` (configuration not stated), the GI50 with A498, with CAKI-1, in the test on CCRF-CEM, in the test on DU-145, in the test on HCC 2998 and in the test on HCT-116 was > 100 µM (inactive) in each case. Also, the GI50 with HCT-15 was above 100 µM; in the test with IGROV-1, > 100 µM (inactive); in the test on M14 it was > 100 µM (inactive); in the test with MDA-MB-231, > 100 µM (inactive); in the test on MDA-MB-435, > 100 µM (inactive); in the test with MDA-N it was > 100 µM (inactive). The GI50 with NCI-H226, in the test with OVCAR-5, in the test on SNB-75, with T47D and with TK-10 was > 100 µM (inactive) in each case.
`COc1ccc(C(OCC2OC(n3cc(C)c(=O)[nH]c3=O)CC2n2cc(Cn3cc(I)c(=O)[nH]c3=O)nn2)(c2ccccc2)c2ccccc2)cc1` (configuration not stated): the GI50 in the test with A498 is > 100 µM (inactive); in the test on CAKI-1, > 100 µM (inactive); with CCRF-CEM, 11.2 µM (inactive); in the test on DU-145, > 100 µM (inactive); in the test on HCC 2998, > 100 µM (inactive); in the test on HCT-116, > 100 µM (inactive). The GI50 with HCT-15 was above 100 µM; with IGROV-1, > 100 µM (inactive); in the test on M14 it was > 100 µM (inactive); with MDA-MB-231 it was > 100 µM (inactive); in the test with MDA-MB-435 it was > 100 µM (inactive); in the test on MDA-N, > 100 µM (inactive). In addition, the GI50 is > 100 µM (inactive) in the test with NCI-H226; > 100 µM (inactive) in the test on OVCAR-5; > 100 µM (inactive) in the test on SK-OV-3; 48.6 µM (inactive) with SNB-75; > 100 µM (inactive) in the test on T47D; > 100 µM (inactive) in the test with TK-10.
